Experimental data reported in PubChem BioAssay (NCI).
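The concentration for 50% growth inhibition is given as GI50. TGI marks complete inhibition of growth.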

How the values were obtained:
Experiment in all cases: NCI tumour cell line growth inhibition, 384-well format
NCI-H460 NSCLC = system: NCI-H460 NSCLC
IGROV1 ovarian = system: IGROV1 ovarian
SF-539 CNS = system: SF-539 CNS
SNB-19 CNS = system: SNB-19 CNS
NCI/ADR-RES ovarian = system: NCI/ADR-RES ovarian
UACC-257 melanoma = system: UACC-257 melanoma
MCF7 breast = system: MCF7 breast
ACHN renal = system: ACHN renal
OVCAR-3 ovarian = system: OVCAR-3 ovarian
PC-3 prostate = system: PC-3 prostate
SNB-75 CNS = system: SNB-75 CNS
U251 glioblastoma = system: U251 glioblastoma
HOP-62 NSCLC = system: HOP-62 NSCLC
LOX IMVI melanoma = system: LOX IMVI melanoma
DU-145 prostate = system: DU-145 prostate
NCI-H322M lung = system: NCI-H322M lung
COLO 205 colon = system: COLO 205 colon
CCRF-CEM leukemia = system: CCRF-CEM leukemia
MDA-MB-231 breast = system: MDA-MB-231 breast
HT29 colon = system: HT29 colon
SF-268 CNS = system: SF-268 CNS
KM12 colon = system: KM12 colon
RXF 393 renal = system: RXF 393 renal
OVCAR-5 ovarian = system: OVCAR-5 ovarian
MALME-3M melanoma = system: MALME-3M melanoma
SK-MEL-28 melanoma = system: SK-MEL-28 melanoma
HS 578T breast = system: HS 578T breast
K-562 leukemia = system: K-562 leukemia
SR leukemia = system: SR leukemia
M14 melanoma = system: M14 melanoma
MDA-MB-468 breast = system: MDA-MB-468 breast
MOLT-4 leukemia = system: MOLT-4 leukemia
NCI-H23 lung = system: NCI-H23 lung
TK-10 renal = system: TK-10 renal
CAKI-1 renal = system: CAKI-1 renal
T-47D breast = system: T-47D breast
A549 NSCLC = system: A549 NSCLC
NCI-H522 lung = system: NCI-H522 lung
OVCAR-8 ovarian = system: OVCAR-8 ovarian
HOP-92 NSCLC = system: HOP-92 NSCLC
A498 renal = system: A498 renal
EKVX NSCLC = system: EKVX NSCLC
HL-60(TB) leukemia = system: HL-60(TB) leukemia
SN12C renal = system: SN12C renal
786-0 renal = system: 786-0 renal
OVCAR-4 ovarian = system: OVCAR-4 ovarian
NCI-H226 lung = system: NCI-H226 lung
MDA-MB-435 melanoma = system: MDA-MB-435 melanoma
HCC-2998 colon = system: HCC-2998 colon
SK-OV-3 ovarian = system: SK-OV-3 ovarian
BT-549 breast = system: BT-549 breast
UACC-62 melanoma = system: UACC-62 melanoma
RPMI-8226 leukemia = system: RPMI-8226 leukemia
HCT-116 colon = system: HCT-116 colon
SF-295 CNS = system: SF-295 CNS
HCT-15 colon = system: HCT-15 colon
SK-MEL-5 melanoma = system: SK-MEL-5 melanoma
SW-620 colon = system: SW-620 colon
SK-MEL-2 melanoma = system: SK-MEL-2 melanoma

## Cc1cc(-c2ncc(CC(=O)Nc3ccc(-c4cnccn4)cn3)cc2C)ccn1
NCI-H460 NSCLC
  GI50: 28.6 µM
  TGI: > 100 µM
IGROV1 ovarian
  GI50: 56.3 µM
  TGI: > 100 µM
SF-539 CNS
  GI50: > 57.7 µM
  TGI: > 100 µM
SNB-19 CNS
  GI50: 64 µM
  TGI: > 100 µM
NCI/ADR-RES ovarian
  GI50: 14.4 µM
  TGI: 47.3 µM
UACC-257 melanoma
  GI50: 27.8 µM
  TGI: > 100 µM
MCF7 breast
  GI50: 27.3 µM
  TGI: > 100 µM
ACHN renal
  GI50: 64.4 µM
  TGI: > 100 µM
OVCAR-3 ovarian
  GI50: > 86.3 µM
  TGI: > 100 µM
PC-3 prostate
  GI50: 51.1 µM
  TGI: > 100 µM
SNB-75 CNS
  GI50: > 58.8 µM
  TGI: > 100 µM
U251 glioblastoma
  GI50: 48.6 µM
  TGI: > 100 µM
HOP-62 NSCLC
  GI50: 39.7 µM
  TGI: > 100 µM
LOX IMVI melanoma
  GI50: 28.4 µM
  TGI: > 100 µM
DU-145 prostate
  GI50: > 100 µM
  TGI: > 100 µM
NCI-H322M lung
  GI50: 43 µM
  TGI: > 100 µM
COLO 205 colon
  GI50: > 93.6 µM
  TGI: > 100 µM
CCRF-CEM leukemia
  GI50: 12.2 µM
  TGI: 49 µM
MDA-MB-231 breast
  GI50: > 100 µM
  TGI: > 100 µM
HT29 colon
  GI50: 74.5 µM
  TGI: > 100 µM
SF-268 CNS
  GI50: > 100 µM
  TGI: > 100 µM
KM12 colon
  GI50: > 82.9 µM
  TGI: > 100 µM
RXF 393 renal
  GI50: 21.3 µM
  TGI: > 100 µM
OVCAR-5 ovarian
  GI50: > 100 µM
  TGI: > 100 µM
MALME-3M melanoma
  GI50: > 100 µM
  TGI: > 100 µM
SK-MEL-28 melanoma
  GI50: > 100 µM
  TGI: > 100 µM
HS 578T breast
  GI50: > 100 µM
  TGI: > 100 µM
K-562 leukemia
  GI50: 10.4 µM
  TGI: > 100 µM
SR leukemia
  GI50: 3.81 µM
  TGI: 27.9 µM
M14 melanoma
  GI50: > 100 µM
  TGI: > 100 µM
MDA-MB-468 breast
  GI50: 3.43 µM
  TGI: 33.1 µM
MOLT-4 leukemia
  GI50: 12.9 µM
  TGI: 26.2 µM
NCI-H23 lung
  GI50: 20.5 µM
  TGI: > 100 µM
TK-10 renal
  GI50: 65.7 µM
  TGI: > 100 µM
CAKI-1 renal
  GI50: 49.3 µM
  TGI: > 100 µM
T-47D breast
  GI50: 9.51 µM
  TGI: > 52.8 µM
A549 NSCLC
  GI50: > 70.5 µM
  TGI: > 100 µM
NCI-H522 lung
  GI50: 31.5 µM
  TGI: > 100 µM
OVCAR-8 ovarian
  GI50: 30.3 µM
  TGI: > 100 µM
HOP-92 NSCLC
  GI50: > 100 µM
  TGI: > 100 µM
A498 renal
  GI50: 68.8 µM
  TGI: > 100 µM
EKVX NSCLC
  GI50: 21.8 µM
  TGI: > 100 µM
HL-60(TB) leukemia
  GI50: 6.52 µM
  TGI: 24.1 µM
SN12C renal
  GI50: 39.2 µM
  TGI: > 100 µM
786-0 renal
  GI50: 59.5 µM
  TGI: > 100 µM
OVCAR-4 ovarian
  GI50: 25.5 µM
  TGI: > 100 µM
NCI-H226 lung
  GI50: 61.6 µM
  TGI: > 100 µM
MDA-MB-435 melanoma
  GI50: 38.6 µM
  TGI: > 100 µM
HCC-2998 colon
  GI50: > 88.8 µM
  TGI: > 100 µM
SK-OV-3 ovarian
  GI50: > 66 µM
  TGI: > 100 µM
BT-549 breast
  GI50: 32.5 µM
  TGI: > 100 µM
UACC-62 melanoma
  GI50: 56.1 µM
  TGI: > 100 µM
RPMI-8226 leukemia
  GI50: 13.8 µM
  TGI: 34.7 µM
HCT-116 colon
  GI50: 29 µM
  TGI: > 100 µM
SF-295 CNS
  GI50: 49.3 µM
  TGI: > 100 µM
HCT-15 colon
  GI50: 57.1 µM
  TGI: > 100 µM
SK-MEL-5 melanoma
  GI50: 11.6 µM
  TGI: 27.2 µM
SW-620 colon
  GI50: 88.6 µM
  TGI: > 100 µM
SK-MEL-2 melanoma
  GI50: 42.6 µM
  TGI: > 100 µM
